“Also recorded” adds a separate entry of the source. Where a SMILES comes first, the peptide text is derived from it.
Experiments:
HUVECs [1] = experiment: HUVEC tube formation on Matrigel; type: cell-based, human
Experimental: Tube formation of HUVECs was examined using growth factor-reduced Matrigel (hereinafter, referred to as “Matrigel”). 250 μl of Matrigel (10 mg protein/ml) was placed in a 24-well plate to allow polymerization for 30 minutes at 37° C. […] The tube formation was examined under a reverse phase-contrast microscope, and visualized with Image-Pro Plus version 4.5 (Media Cybernetics, San Diego, Calif.). Five samples were randomly selected to measure and quantify a length of the tube formed above.

HUVECs [2] = experiment: Confocal microscopy of FITC-RLYE binding to HUVECs; parameters: species or system human
Experimental: HUVECs were incubated on a cover glass coated with 2% gelatin, and then incubated with FITC-RLYE (SEQ ID NO: 2) (100 ng/ml) after being treated with VEGF-A (10 ng/ml) for 30 minutes or not treated. The cells were fixed in 3.7% formaldehyde for 30 minutes, treated with 0.2% TritonX-100-containing PBS, and reacted with a 3% goat serum and 0.05% Tween-20-containing PBS blocking solution. The cells were reacted with a PECAM-1 antibody at room temperature for 2 hours, washed with PBS, and reacted with a TRITC-conjugated secondary antibody at room temperature for 90 minutes. Samples were observed under a confocal microscope.

ERK = experiment: Western blot, ERK phosphorylation in HUVECs; type: cell-based, human
Experimental: Cells were lyzed in RIPA buffer, and 50 μg of proteins were isolated by SDS-PAGE and then transferred to a PVDF membrane. The membrane was reacted with an antibody with respect to a target protein for 2 hours. The membrane was washed twice and reacted with a horseradish peroxidase-conjugated antibody, and then an amount of the target proteins was assessed with an enhanced chemiluminescence system.

`CC(C)C[C@H](NC(=O)[C@@H](N)CCCNC(=N)N)C(=O)N[C@@H](Cc1ccc(O)cc1)C(=O)N[C@@H](CCC(=O)O)C(=O)O` [RLYE] (H-RLYE-OH; N-terminus and C-terminus assumed) was tested, and the “inhibition of VEGF-induced tube formation” value (HUVECs [1]; HUVECs, peptide 0.15 nM, VEGF 10 ng/ml) was “effectively regulated; also recorded: much higher inhibitory effect on the tube formation than KLYD; also recorded: effectively inhibited”, the “bFGF-induced tube formation of HUVECs” value (HUVECs [1]; bFGF stimulated) was “did not inhibit” and the “binding to HUVEC surface (confocal microscope)” value (HUVECs [2]; pretreatment of VEGF-A) was “effectively blocked”. The “binding to HUVEC surface (confocal microscope)” value (HUVECs [2]; without VEGF-A pretreatment) was “binds to a HUVEC surface”, the “P1GF-induced ERK phosphorylation” value (ERK; P1GF (ligand of VEGFR-1)) was “did not inhibit” and the “inhibition of VEGF-induced ERK phosphorylation” value (ERK; VEGF / VEGF-A stimulated) was “inhibited; also recorded: more effectively inhibited; also recorded: highest inhibitory effect”. The “VEGF-B-induced ERK phosphorylation” value (ERK; VEGF-B (ligand of VEGFR-1)) was “did not inhibit”.

— patent publication US9969771B2, “Tetrapeptide having effect of inhibiting VEGF-induced angiogenesis and use thereof” (AVIXGEN INC., priority 2015, dated 2018)
